Data published in ChEMBL document CHEMBL1124202, “Synthesis and evaluation of multisubstrate inhibitors of an oncogene-encoded tyrosine-specific protein kinase. 2” (J Med Chem, 1988).
pIC50: −log10 of the molar value.

Molecular target: T1, Tyrosine-protein kinase transforming protein Abl (Abelson murine leukemia virus, UniProt P00521)
T1 sequence (P00521 whole entry): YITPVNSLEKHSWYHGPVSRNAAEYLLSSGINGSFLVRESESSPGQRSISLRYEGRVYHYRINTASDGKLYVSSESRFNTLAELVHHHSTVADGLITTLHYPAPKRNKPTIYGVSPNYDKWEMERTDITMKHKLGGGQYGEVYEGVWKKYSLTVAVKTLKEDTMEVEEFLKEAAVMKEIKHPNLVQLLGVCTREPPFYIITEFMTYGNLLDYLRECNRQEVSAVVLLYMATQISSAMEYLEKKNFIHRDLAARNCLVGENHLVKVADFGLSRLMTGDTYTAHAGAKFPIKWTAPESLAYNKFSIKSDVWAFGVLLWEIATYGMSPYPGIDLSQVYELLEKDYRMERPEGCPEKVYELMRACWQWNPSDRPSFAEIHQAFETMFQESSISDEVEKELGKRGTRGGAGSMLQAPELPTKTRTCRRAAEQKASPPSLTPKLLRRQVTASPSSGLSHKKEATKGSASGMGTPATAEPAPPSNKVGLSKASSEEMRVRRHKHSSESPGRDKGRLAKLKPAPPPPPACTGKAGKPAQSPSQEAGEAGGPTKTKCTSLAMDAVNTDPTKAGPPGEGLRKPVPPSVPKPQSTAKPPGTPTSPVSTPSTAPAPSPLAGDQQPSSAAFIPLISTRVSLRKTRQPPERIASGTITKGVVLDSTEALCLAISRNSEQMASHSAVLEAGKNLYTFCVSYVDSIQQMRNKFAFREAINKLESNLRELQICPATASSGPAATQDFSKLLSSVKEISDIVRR
Assay: Inhibition of p60v-abl tyrosine kinase from Abelson murine leukemia virus

Compound | pIC50
Nc1ncnc2c1ncn2[C@@H]1O[C@H](COP(=O)(O)OP(=O)(O)OP(=O)(O)OP(=O)(O)Oc2ccccc2)[C@@H](O)[C@H]1O | 4.39
CC(=O)NC(Cc1ccc(NP(=O)(O)OP(=O)(O)OP(=O)(O)OP(=O)(O)OC[C@H]2O[C@@H](n3cnc4c(N)ncnc43)[C@H](O)[C@@H]2O)cc1)C(N)=O (stereo partly drawn) | 3.96
Cc1ccc(NP(=O)(O)OP(=O)(O)OP(=O)(O)OC[C@H]2O[C@@H](n3cnc4c(N)ncnc43)[C@H](O)[C@@H]2O)cc1 | 3.82
Cc1ccc(NP(=O)(O)OP(=O)(O)OP(=O)(O)OP(=O)(O)OC[C@H]2O[C@@H](n3cnc4c(N)ncnc43)[C@H](O)[C@@H]2O)cc1 | 4.80
CC(=O)NC(Cc1ccc(NP(=O)(O)OP(=O)(O)OP(=O)(O)OC[C@H]2O[C@@H](n3cnc4c(N)ncnc43)[C@H](O)[C@@H]2O)cc1)C(N)=O (stereo partly drawn) | 4.36
Nc1ncnc2c1ncn2[C@@H]1O[C@H](COP(=O)(O)OP(=O)(O)OP(=O)(O)Oc2ccccc2)[C@@H](O)[C@H]1O | 4.89
COc1ccc(CNP(=O)(O)OP(=O)(O)OP(=O)(O)OC[C@H]2OC(n3cnc4c(N)ncnc43)[C@H](O)[C@@H]2O)cc1 (stereo partly drawn) | 4.05
CC(=O)NCCNP(=O)(O)OP(=O)(O)OP(=O)(O)OC[C@H]1O[C@@H](n2cnc3c(N)ncnc32)[C@H](O)[C@@H]1O | 4.60
